From patent US20230083012A1, “DIHYDROPYRIMIDINE DERIVATIVES AND USES THEREOF IN THE TREATMENT OF HBV INFECTION OR OF HBV-INDUCED DISEASES” (priority 2019, published 2023)
pEC50: −log10 of the molar value.

Legend:
HBV = test: Anti-HBV activity in HepG2.2.15 cells (HBV DNA in culture medium by qPCR); format: cell-based; details: Hepatitis B virus, HepG2.2.15, 144 h, HepG2.2.15 cells, 6 days treatment, HBV DNA in culture medium quantified by real-time PCR; read-out: EC50
Method in brief: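 HepG2.2.15 cells in 2% FBS medium at 37 °C were treated with compounds for 6 days, with medium and compound refreshed at day 3; 1:3 dilutions, 8 concentrations in triplicate, top 10 or 1 uM. HBV DNA in culture medium quantified by qPCR to derive EC50; CC50 from parallel plates (top 100 uM).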

[1] = Cytotoxicity determination in HepG2.2.15 cells (CCK-8 cell viability); format: cell-based; details: human, 6 days treatment, CCK-8 assay, highest concentration 100 uM
Method in brief: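 HepG2.2.15 cells seeded at 5,000 cells/well in 2% FBS medium, exposed 6 days to compounds (8-point 1:3 dilutions from 100 uM, triplicate), refreshed at day 3. Viability read by CCK-8 after 2.5 h at 37° C, absorbance 450 nm with 630 nm reference; CC50 calculated.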

With `COC(=O)C1=C(CN2CC(F)(F)[C@@H]3CN(C(=O)C(C)(C)C(=O)O)C[C@@H]32)NC(c2nccs2)=N[C@H]1c1ccc(F)cc1Cl` (single isomer, unassigned) [Compound 208, 3-((cis)-1-((6-(2-chloro-4-fluorophenyl)-5-(methoxycarbonyl)-2-(thiazol-2-yl)-3,6-dihydropyrimidin-4-yl)methyl)-3,3-difluorohexahydropyrrolo[3,4-b]pyrrol-5(1H)-yl)-2,2-dimethyl-3-oxopropanoic acid] the pEC50 (HBV) was 7.54 and the CC50 at 6 days [1] was > 100000 nM.
With `CCOC(=O)C1=C(CN2CC(F)(F)[C@@H]3[C@H]2CN(C(C)C)N3CCC(C)(C)C(=O)O)NC(c2nccs2)=N[C@H]1c1cccc(F)c1C` (single isomer, unassigned) [Compound 89] the pEC50 (HBV) was 7.22 and the CC50 at 6 days [1] was > 3120 nM.
For `COC(=O)C1=C(CN2CC(F)(F)[C@H]3[C@@H]2CCN3C[C@H](C)C(=O)O)NC(c2nccs2)=N[C@H]1c1cccc(F)c1Cl` (single isomer, unassigned) [Compound 132B, 3-((cis)-4-((6-(2-Chloro-3-fluorophenyl)-5-(methoxycarbonyl)-2-(thiazol-2-yl)-3,6-dihydropyrimidin-4-yl)methyl)-6,6-difluorohexahydropyrrolo[3,2-b]pyrrol-1(2H)-yl)-2-methylpropanoic acid], the pEC50 (HBV) was 7.97 and the CC50 at 6 days [1] was 71800 nM.
`[H][C@]1(N2CC[C@H]3[C@@H]2C(F)(F)CN3CC2=C(C(=O)OC)[C@H](c3cccc(F)c3F)N=C(c3nccs3)N2)C[C@@]2(C[C@@H](C(=O)O)C2)C1` (single isomer, unassigned) [Compound 120A] showed a pEC50 (HBV) of 7.92 and a CC50 at 6 days [1] of 28100 nM.
In the case of `CCCOC(=O)C1=C(CN2CC(F)(F)[C@H]3[C@@H]2CCN3CCC(C)(C)C(=O)O)NC(c2nccs2)=N[C@H]1c1cccc(F)c1C` (single isomer, unassigned) [Compound 151], the pEC50 (HBV) was 7.73 and the CC50 at 6 days [1] was 9300 nM.
In the case of `CCOC(=O)C1=C(CN2CC(F)(F)[C@H]3[C@@H]2C(=O)N(CC(C)(C)C(=O)O)N3C)NC(c2nccs2)=N[C@H]1c1cccc(F)c1C` (single isomer, unassigned) [Compound 88], the pEC50 (HBV) was 8.82 and the CC50 at 6 days [1] was 60000 nM.
Work on `CCOC(=O)C1=C(CN2CC(F)(F)[C@@H]3[C@H]2CN(C(=O)C2CC2)N3CCC(C)(C)C(=O)O)NC(c2nccs2)=N[C@H]1c1cccc(F)c1C` (single isomer, unassigned) [Compound 73] yielded a pEC50 (HBV) of 7.77 and a CC50 at 6 days [1] of 26000 nM.
`CCOC(=O)C1=C(CN2CC(F)(F)[C@H]3[C@@H]2CCN3C[C@@H]2CC[C@@H]2C(=O)O)NC(c2nccs2)=N[C@H]1c1cccc(F)c1C` (single isomer, unassigned) [Compound 130A] showed a pEC50 (HBV) of 8.12 and a CC50 at 6 days [1] of 22400 nM.
For `CCOC(=O)C1=C(CN2CC(F)(F)[C@@H]3C(=O)N(CC(C)(C)c4nn[nH]n4)C[C@@H]32)NC(c2nccs2)=N[C@H]1c1cccc(F)c1C` (single isomer, unassigned) [Compound 200], the pEC50 (HBV) was 7.46 and the CC50 at 6 days [1] was 91300 nM.
Work on `CCOC(=O)C1=C(CN2CC(F)(F)[C@H]3CN(C[C@H](C)C(=O)O)C[C@H]32)NC(c2nccs2)=N[C@H]1c1cccc(F)c1C` (single isomer, unassigned) [Compound 15F] yielded a pEC50 (HBV) of 7.79 and a CC50 at 6 days [1] of 39000 nM.
Compound `CCOC(=O)C1=C(CN2CCC3C(=O)N(CC(C)(C)C(=O)O)C(=O)C32)NC(c2nccs2)=N[C@H]1c1cccc(F)c1C` (stereo partly drawn) [Compound 4] has a pEC50 (HBV) of 7.25 and a CC50 at 6 days [1] of 47800 nM.
For `CCOC(=O)C1=C(CN2CC(F)(F)[C@@H]3[C@H]2CON3CCC(C)(C)C(=O)O)NC(c2nc(C)cs2)=N[C@H]1c1cccc(F)c1C` (single isomer, unassigned) [Compound 165, (cis)-4-(4-((5-(ethoxycarbonyl)-6-(3-fluoro-2-methylphenyl)-2-(4-methylthiazol-2-yl)-3,6-dihydropyrimidin-4-yl)methyl)-6,6-difluorohexahydro-1H-pyrrolo[3,2-c]isoxazol-1-yl)-2,2-dimethylbutanoic acid], the pEC50 (HBV) was 8.10 and the CC50 at 6 days [1] was > 50000 nM.
